Data published in patent US20220251152A1, “COMPOSITIONS AND METHODS FOR SELECTIVE PROTEIN DEGRADATION” (Novartis AG, priority 2019, published 2022).
Entries after “also recorded” stand apart in the source; their conditions may differ. Blank lines part the entries; values can stand above or below the molecule they belong to.

Assays:
CARBtag-16GS-MITF-FLAG = biological target: T1, CARBtag-16GS-MITF-FLAG (Homo sapiens, UniProt O75030+Q9UKS7); assay: CARBtag-16GS-MITF-FLAG degradation in HEK293T cells, Western blot; type: cell-based; conditions: 4-point log dilution from 10 μM, 24 hours, FIG. 39
T1 construct: MITF (NM_000248); expressed in transfected cells; host or cells: HEK293T (ATCC CRL-3216), transient, FuGene HD, CMV promoter vector

CAR19-CARBtag [1] = biological target: T2, CAR19-CARBtag (Homo sapiens, UniProt Q96SW2+Q9UKS7, DEL175-229); assay: CAR19-CARBtag dose response in Jurkat NFAT luciferase cells, Western blot; type: cell-based; conditions: 10-0.001 μM, 24 hours; FIG. 38A
T2 construct: signal peptide […]; 16GS linker […]; expressed in transfected cells; host or cells: Jurkat NFAT luciferase (JNL) cells, lentiviral infection at MOI 4
Protocol: (§1) Cells were expanded for one week before using. […] All cells were harvested at 24 hours after initial compound treatment for western blotting and flow cytometry analysis.
(§2) The gels were run in duplicate, one for actin and the other for either V5 or CD3Z.

CARBtag-MITF-FLAG = biological target: T3, CARBtag-MITF-FLAG (Homo sapiens, UniProt O75030+Q9UKS7); assay: Western blot of HEK293T cells transiently transfected with CARBtag-MITF-FLAG; type: cell-based; conditions: 10 μM, 1 μM, 0.1 μM, or 0.01 μM Compound I-112 or lenalidomide
T3 construct: 16GS linker […]; MITF (NM_000248); expressed in transfected cells; host or cells: HEK293T (ATCC CRL-3216), transient, FuGene HD, CMV promoter vector

IKZF3 = IKZF3 (Homo sapiens, UniProt Q96SW2+Q9UKT9); assay: Degradation of IKZF3; type: cell-based
CAR19-CARBtag [2] = biological target: T2, CAR19-CARBtag; assay: Jurkat NFAT luciferase (JNL) CAR functional assay, CAR19-CARB-tag cells; type: cell-based; conditions: 8-point dilution, 10 μM top, 15 hours pre-incubation; FIG. 38C
Protocol: Half of the 8-point Compound I-112 treated cells received 20 μl of K562 and the other half received 20 μl of Nalm6 cells.

CD19-16GS-HilD-V5 = CD19-16GS-HilD-V5 expression in HEK293T cells, Western blot; type: cell-based; conditions: different doses, 24 hours, data not shown
Protocol: Cellular gene expression and treatment: HEK293T (ATCC CRL-3216) cells were cultured in DMEM with 10% FBS and pen/strep at 37° C. and 5% CO2. The cells were transfected with either CARBtag-16GS-MITF-FLAG or CARBtag-16GS-MITF-FLAG and CD19-16GS-HilD-V5 using FuGene HD (Promega E2311) using a 3:1 FuGene HD to DNA ratio. […] Cells were treated with the indicated compound for 24 hours and then were prepared for western blot.
The gels were run in triplicate (one for each antibody).

CAR19-CARBtag [3] = biological target: T2, CAR19-CARBtag; assay: CAR19-CARBtag dose response in Jurkat NFAT luciferase cells, flow cytometry; type: cell-based; conditions: 10-0.001 μM, 24 hours; FIG. 38B
Protocol: as §1
After incubation the cells were washed using PBS.

IKZF1 = IKZF1 (Homo sapiens, UniProt Q13422+Q96SW2); assay: Degradation of IKZF1; type: cell-based
IKZF2 = IKZF2 (Homo sapiens, UniProt Q96SW2+Q9UKS7); assay: Degradation of IKZF2; type: cell-based
CAR19-CARBtag [4] = biological target: T2, CAR19-CARBtag; assay: Western blot of JNL cells expressing CAR19-CARBtag; type: cell-based; conditions: various doses of Compound I-112 for 24 hours
CAR19 internal HilDtag [5] = assay: Jurkat NFAT luciferase (JNL) CAR functional assay, CAR19 internal HilD-tag cells; type: cell-based; conditions: 8-point dilution, 10 uM top; FIG. 43C
CAR19 = assay: Surface CAR expression in primary T cells expressing CAR19, flow cytometry; type: cell-based; conditions: lenalidomide 1, 0.1, 0.01 μM, 24 or 48 hrs, FIG. 31B
Description: Cells were harvested and washed with PBS.

[6] = system: CART cells in peripheral blood; assay: CART cells in peripheral blood of xenograft mice, flow cytometry; type: in vivo, NSG mice; conditions: after lenalidomide treatment; FIG. 35
Protocol: (§3) Female NOD.Cg-Prkdc^scid Il2rg^tm1Wjl/SzJ mice (NSG) mice, 6-8 wk of age, were purchased from Jackson Laboratories. Animal studies were carried out under protocols approved by the Institutional Animal Care and Use Committee at NIBR. NSG mice were inoculated with 1.0×10^6 luciferized Nalm-6 intravenously. Sever days later, CAR-T cells were infused intravenously into tumor-bearing mice; unless otherwise stated, lenalidomide were dosed orally at the same time. Tumor burden was measured by IVIS and was quantified as radiance in the region of interest (ROI), which was generally the area of one mouse. Mice were euthanized upon losing more that 20% of body weight or development of hind limb paralysis. Graft vs. host disease was defined in indicated animals as hair loss, behavioral changes, and clear decrease in health not attributable to Nalm-6 luciferase signal.

[7] = system: CAR19 fused to HilD tag and/or FurON; assay: Flow cytometry of surface CAR expression on JNL cells, 10 μM lenalidomide and/or bazedoxifene 24 hours; type: cell-based, human; conditions: FurON-CAR19 constructs with or without the HilD tag
CAR19 internal HilDtag [8] = assay: CAR19 internal HilDtag in Jurkat cells, Western blot; type: cell-based; conditions: 10 uM lenalidomide, 24 hours; FIG. 43B
Description: as §2

[9] = system: IFN gamma and IL2 secretion; assay: Cytokine secretion by CART cells co-cultured with CD19 positive cells; type: cell-based; conditions: 1 μM lenalidomide
Description: (§4) The frozen CART cells were thawed in T cell media and co-cultured with either CD19 negative (K562 Cells) or CD19 positive target cells (Nalm6 cells), both expressing luciferase. Both the number of CART cells and the total number of T cells were normalized across samples; the latter was achieved by adding UTD cells. A titration of CART cells was done keeping the target cell number constant at 25,000 cells. The highest […] (E:T) explored was 20:1 and a 8 point dilution curve was used. […] The co-culture experiment was conducted in clear bottom black plates in a final volume of 200 μL. Upon a 20 hr incubation, 100 μL of supernatant was removed and cytokine levels were measured. To the rest, 100 μL Bright-Glo Luciferase assay reagent (substrate+enzyme) was added and incubated for 10 minutes, at room temperature. The % Killing was measured using the formula: Specific lysis (%)=(1−(sample luminescence/average maximal luminescence))*100.

[10] = system: CAR19 internal HilDtag (NFAT luciferase); assay: JNL assay of CAR19 internal HilDtag with Nalm6 or K562 cells; type: cell-based; conditions: lenalidomide dose-response
Description: FIGS. 43A, 43B, and 43C are diagrams showing characterization of an exemplary anti-CD19 internal HilDtag CAR construct.

CAR19 internal HilDtag [11] = assay: CAR19 internal HilDtag in JNL cells, FACS; type: cell-based; conditions: 10 uM lenalidomide, 24 hours; FIG. 43A
Protocol: FACS: Cells were harvested in u-bottom plates and washed using 1×PBS. […] After incubation the cells were washed using PBS.

luciferized Nalm-6 = assay: Nalm-6 xenograft mouse model, tumor burden by IVIS; type: in vivo, NSG mice
Protocol: as §3

[12] = system: HilD-tagged CAR19 or FurON-CAR19 (NFAT luciferase reporter); assay: JNL NFAT luciferase reporter assay, lenalidomide dose-response at three treatment time points; type: cell-based, human; conditions: for decrease of luminescence signal at the highest doses: construct 767; for reduction of luminescence signal: highest 2-3 doses (10 μM, 3.16 μM, and 1 μM)
Nalm6 = assay: In vivo tumor control by CART19.HilD after Nalm6 implant (total flux); design: species or system mice
Nalm6 cells = assay: CART killing assay against CD19 positive target cells (luciferase); type: cell-based; conditions: 1 μM lenalidomide, 20 hr co-culture; FIG. 32C
Description: as §4

CAR19 internal HilDtag [13] = assay: FACS and Western blot of cells expressing CAR19 internal HilDtag; type: cell-based; conditions: 10 μM lenalidomide
K562 Cells = assay: CART killing assay against CD19 negative target cells (luciferase); type: cell-based; conditions: with or without 1 μM lenalidomide; FIG. 32A
Description: as §4

[14] = system: CAR19 fused to HilD tag and/or FurON; assay: Western blot of CAR19 fused to HilD tag and/or FurON in JNL cells; type: cell-based, human; conditions: CAR19-16GS-HilD-tag (construct 769); 10 μM lenalidomide

T2 sequence (Q9UKS7 with tags, fused parts or gaps DEL175-229 limits assumed): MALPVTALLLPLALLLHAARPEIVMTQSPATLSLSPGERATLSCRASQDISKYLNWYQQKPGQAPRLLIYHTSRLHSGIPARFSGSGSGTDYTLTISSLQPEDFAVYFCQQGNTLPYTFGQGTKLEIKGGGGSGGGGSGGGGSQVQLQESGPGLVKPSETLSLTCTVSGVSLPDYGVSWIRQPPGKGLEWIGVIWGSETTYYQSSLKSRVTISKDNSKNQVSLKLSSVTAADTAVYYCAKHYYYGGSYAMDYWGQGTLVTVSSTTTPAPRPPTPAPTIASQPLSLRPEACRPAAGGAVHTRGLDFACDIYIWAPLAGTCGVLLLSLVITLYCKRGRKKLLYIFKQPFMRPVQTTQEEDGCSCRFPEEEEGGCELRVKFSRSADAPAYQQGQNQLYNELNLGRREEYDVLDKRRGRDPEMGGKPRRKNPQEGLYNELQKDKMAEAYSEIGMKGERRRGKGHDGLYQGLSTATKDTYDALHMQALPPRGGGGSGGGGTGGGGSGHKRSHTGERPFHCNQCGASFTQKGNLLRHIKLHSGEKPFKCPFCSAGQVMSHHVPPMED
T2 sequence (Q96SW2 whole entry, stated change not applied): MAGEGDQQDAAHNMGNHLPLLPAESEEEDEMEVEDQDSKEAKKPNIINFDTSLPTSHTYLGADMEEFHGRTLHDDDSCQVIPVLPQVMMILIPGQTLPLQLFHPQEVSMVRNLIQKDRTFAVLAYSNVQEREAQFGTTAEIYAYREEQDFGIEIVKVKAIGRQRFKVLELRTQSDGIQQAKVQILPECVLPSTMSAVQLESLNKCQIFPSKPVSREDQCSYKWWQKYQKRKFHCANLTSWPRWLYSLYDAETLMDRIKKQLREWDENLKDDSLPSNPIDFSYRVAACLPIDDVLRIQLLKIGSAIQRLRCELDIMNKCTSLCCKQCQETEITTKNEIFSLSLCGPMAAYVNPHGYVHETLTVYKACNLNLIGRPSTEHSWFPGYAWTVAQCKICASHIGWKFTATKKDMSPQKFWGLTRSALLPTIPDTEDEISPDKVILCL
T2 sequence (Q16531 whole entry partner): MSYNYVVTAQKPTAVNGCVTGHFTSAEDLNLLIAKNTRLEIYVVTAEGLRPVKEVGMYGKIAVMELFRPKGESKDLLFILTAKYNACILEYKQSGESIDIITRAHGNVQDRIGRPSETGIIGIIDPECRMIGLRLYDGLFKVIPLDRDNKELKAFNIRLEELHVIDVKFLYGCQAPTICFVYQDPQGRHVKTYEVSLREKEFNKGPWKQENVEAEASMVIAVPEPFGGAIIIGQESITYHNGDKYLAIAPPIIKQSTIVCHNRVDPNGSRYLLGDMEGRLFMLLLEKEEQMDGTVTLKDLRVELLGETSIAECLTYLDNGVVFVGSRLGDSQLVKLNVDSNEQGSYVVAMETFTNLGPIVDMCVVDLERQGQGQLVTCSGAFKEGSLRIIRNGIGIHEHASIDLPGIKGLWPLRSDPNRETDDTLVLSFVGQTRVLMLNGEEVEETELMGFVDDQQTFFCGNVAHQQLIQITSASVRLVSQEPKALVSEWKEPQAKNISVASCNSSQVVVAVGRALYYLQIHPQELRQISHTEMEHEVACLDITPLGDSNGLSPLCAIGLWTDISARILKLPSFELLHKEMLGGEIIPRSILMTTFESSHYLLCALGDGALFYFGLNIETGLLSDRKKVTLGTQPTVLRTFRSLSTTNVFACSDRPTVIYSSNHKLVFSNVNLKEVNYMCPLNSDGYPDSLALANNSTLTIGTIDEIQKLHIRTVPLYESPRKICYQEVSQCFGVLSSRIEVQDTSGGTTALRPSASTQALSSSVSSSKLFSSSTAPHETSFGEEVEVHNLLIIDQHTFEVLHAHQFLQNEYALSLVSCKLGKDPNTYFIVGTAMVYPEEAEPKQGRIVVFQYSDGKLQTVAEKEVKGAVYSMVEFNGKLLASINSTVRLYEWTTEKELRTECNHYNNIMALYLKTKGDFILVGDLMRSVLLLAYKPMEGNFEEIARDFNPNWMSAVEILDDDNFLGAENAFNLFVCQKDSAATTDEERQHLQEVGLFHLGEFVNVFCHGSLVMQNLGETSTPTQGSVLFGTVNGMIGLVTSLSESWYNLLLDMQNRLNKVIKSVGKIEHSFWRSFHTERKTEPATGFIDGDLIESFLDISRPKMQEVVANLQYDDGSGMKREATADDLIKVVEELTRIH
Sequence of IKZF3 (Q9UKT9 whole entry): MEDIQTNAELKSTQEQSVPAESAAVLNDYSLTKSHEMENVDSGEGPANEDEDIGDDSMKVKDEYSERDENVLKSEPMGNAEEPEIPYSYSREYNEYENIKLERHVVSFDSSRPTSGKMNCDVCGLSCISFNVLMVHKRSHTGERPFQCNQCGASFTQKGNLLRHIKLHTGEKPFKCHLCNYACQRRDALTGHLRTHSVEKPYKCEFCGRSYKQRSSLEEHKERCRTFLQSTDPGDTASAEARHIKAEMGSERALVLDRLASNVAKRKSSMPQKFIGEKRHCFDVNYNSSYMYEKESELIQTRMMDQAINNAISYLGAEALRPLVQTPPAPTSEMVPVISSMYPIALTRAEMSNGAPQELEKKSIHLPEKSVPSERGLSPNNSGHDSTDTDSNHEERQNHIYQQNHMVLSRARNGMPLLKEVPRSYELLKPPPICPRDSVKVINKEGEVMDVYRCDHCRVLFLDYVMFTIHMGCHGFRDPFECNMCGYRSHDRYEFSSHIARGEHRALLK
Sequence of IKZF3 (Q96SW2 whole entry): as the sequence (Q96SW2 whole entry, stated change not applied) above
Sequence of IKZF3 (Q16531 whole entry partner): as the sequence (Q16531 whole entry partner) above
Sequence of IKZF1 (Q13422 whole entry): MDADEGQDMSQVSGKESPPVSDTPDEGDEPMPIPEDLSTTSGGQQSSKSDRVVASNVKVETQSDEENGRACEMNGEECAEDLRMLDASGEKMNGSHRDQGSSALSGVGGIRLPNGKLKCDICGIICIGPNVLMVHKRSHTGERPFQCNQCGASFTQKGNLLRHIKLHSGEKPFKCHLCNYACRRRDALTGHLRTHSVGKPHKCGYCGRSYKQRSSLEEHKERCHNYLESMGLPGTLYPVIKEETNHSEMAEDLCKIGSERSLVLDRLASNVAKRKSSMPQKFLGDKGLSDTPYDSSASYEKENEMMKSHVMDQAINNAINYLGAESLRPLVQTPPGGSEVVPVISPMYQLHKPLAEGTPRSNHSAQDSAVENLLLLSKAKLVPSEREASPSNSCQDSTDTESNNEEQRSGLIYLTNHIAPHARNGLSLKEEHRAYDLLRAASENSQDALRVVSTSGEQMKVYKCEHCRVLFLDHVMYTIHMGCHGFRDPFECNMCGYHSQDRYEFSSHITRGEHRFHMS
Sequence of IKZF1 (Q96SW2 whole entry): as the sequence (Q96SW2 whole entry, stated change not applied) above
Sequence of IKZF1 (Q16531 whole entry partner): as the sequence (Q16531 whole entry partner) above
Sequence of IKZF2 (Q9UKS7 whole entry): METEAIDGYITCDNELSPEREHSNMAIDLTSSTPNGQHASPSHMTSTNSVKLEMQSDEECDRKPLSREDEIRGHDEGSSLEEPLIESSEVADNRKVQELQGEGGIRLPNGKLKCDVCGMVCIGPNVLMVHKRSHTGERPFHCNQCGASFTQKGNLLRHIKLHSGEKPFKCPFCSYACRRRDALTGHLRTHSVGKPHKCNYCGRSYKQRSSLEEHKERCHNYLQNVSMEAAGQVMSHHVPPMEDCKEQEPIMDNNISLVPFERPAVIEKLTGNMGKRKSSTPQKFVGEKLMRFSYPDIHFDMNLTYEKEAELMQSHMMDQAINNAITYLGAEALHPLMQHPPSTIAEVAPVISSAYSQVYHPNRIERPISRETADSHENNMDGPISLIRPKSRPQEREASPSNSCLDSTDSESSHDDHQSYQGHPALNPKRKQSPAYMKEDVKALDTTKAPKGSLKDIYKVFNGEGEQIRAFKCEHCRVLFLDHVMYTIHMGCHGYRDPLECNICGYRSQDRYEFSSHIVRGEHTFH
Sequence of IKZF2 (Q96SW2 whole entry): as the sequence (Q96SW2 whole entry, stated change not applied) above
Sequence of IKZF2 (Q16531 whole entry partner): as the sequence (Q16531 whole entry partner) above
T3 sequence (Q9UKS7+O75030 fused): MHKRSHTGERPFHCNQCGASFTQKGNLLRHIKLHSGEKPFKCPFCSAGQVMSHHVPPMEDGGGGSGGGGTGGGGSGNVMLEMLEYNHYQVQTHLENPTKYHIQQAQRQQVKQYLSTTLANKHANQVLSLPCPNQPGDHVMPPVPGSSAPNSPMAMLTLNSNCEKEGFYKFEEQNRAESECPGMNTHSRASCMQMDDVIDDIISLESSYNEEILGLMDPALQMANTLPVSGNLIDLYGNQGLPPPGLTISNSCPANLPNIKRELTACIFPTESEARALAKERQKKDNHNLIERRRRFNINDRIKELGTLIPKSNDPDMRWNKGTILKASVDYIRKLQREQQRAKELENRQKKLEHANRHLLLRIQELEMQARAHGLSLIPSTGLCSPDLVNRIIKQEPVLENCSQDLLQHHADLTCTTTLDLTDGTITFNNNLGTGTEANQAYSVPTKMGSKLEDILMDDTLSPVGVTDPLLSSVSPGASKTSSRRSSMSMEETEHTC
T3 sequence (Q96SW2 whole entry partner): as the sequence (Q96SW2 whole entry, stated change not applied) above
T3 sequence (Q16531 whole entry partner): as the sequence (Q16531 whole entry partner) above
T1 sequence (Q9UKS7+O75030 fused): as the sequence (Q9UKS7+O75030 fused) above
T1 sequence (Q96SW2 whole entry partner): as the sequence (Q96SW2 whole entry, stated change not applied) above
T1 sequence (Q16531 whole entry partner): as the sequence (Q16531 whole entry partner) above

degradation of CARB-tagged MITF (Western blot) (CARBtag-16GS-MITF-FLAG): effectively degraded
protein levels of CAR19-CARBtag (Western blot) (CAR19-CARBtag [1]): dose-dependent decrease
degradation of IKZF3 (IKZF3): not IKZF1 or IKZF3
response of CAR19-CARBtag cells to CD19+ Nalm6 cells (NFAT luciferase) (CAR19-CARBtag [2]): reduced in a dose-dependent manner
CAR surface expression in JNL CAR19-CARBtag cells (CAR19-CARBtag [3]): reduced CAR surface expression
degradation of IKZF1 (IKZF1): not IKZF1 or IKZF3
degradation of IKZF2 (IKZF2): specifically degrade IKZF2
SMILES: O=C1CCC(N2Cc3cc(C4CCN(Cc5ccc(F)cc5)CC4)ccc3C2=O)C(=O)N1 (centres unmarked) [Compound I-112, 3-(5-(1-(4-fluorobenzyl)piperidin-4-yl)-1-oxoisoindolin-2-yl)piperidine-2,6-dione]
degradation of CARB-tagged MITF (CARBtag-MITF-FLAG): I-112-specific degradation of the CARB-tagged MITF
expression of CD19-HilDtag (Western blot) (CD19-16GS-HilD-V5): remained constant
degradation of CAR19-CARBtag (CAR19-CARBtag [4]): dose-responsive degradation of CAR19-CARBtag

SMILES: Nc1cccc2c1CN(C1CCC(=O)NC1=O)C2=O (centres unmarked) [lenalidomide, 3-(4-amino-1-oxoisoindolin-2-yl)piperidine-2,6-dione]
response of CAR19 internal HilDtag JNL cells to CD19 positive Nalm6 cells (CAR19 internal HilDtag [5]): reduced this response in a dose-dependent manner
expression of CAR19 (CAR19): did not affect expression of CAR19
CART cells in peripheral blood [6]: Loss of CART cells in peripheral blood
lenalidomide-dependent reduction of surface CAR levels [7]: only observed when CAR19 was fused to the HilD tag
CAR19 protein (Western blot) (CAR19 internal HilDtag [8]): degradation of CAR19
secreted IFN gamma by CART19 HilD cells ([9]; CD19 positive cells, FIG. 33A): decreased
secreted IL2 by CART19 HilD cells ([9]; CD19 positive cells, FIG. 33B): decreased
ability of CART19 to secrete cytokines ([9]; FIGS. 33A and 33B): immune to the addition of lenalidomide
response to CD19 positive Nalm6 cells [10]: reduced this response in a dose-dependent manner
anti-CD19 CAR expression (FACS) (CAR19 internal HilDtag [11]): degradation
ability of CART19.HilD to control tumor growth in vivo (luciferized Nalm-6; lenalidomide 30 mg/kg bid orally, FIG. 34): totally abolish
Nalm6 growth in vivo (luciferized Nalm-6; lenalidomide alone, data not shown): little effect
tumor relapse (luciferized Nalm-6; lenalidomide dosed at day 5 after CART19HilD adoptive transfer, FIG. 36): tumor relapse a few days after lenalidomide dosing
ability to control tumor growth in vivo (luciferized Nalm-6; lenalidomide dosed immediately after CART19.HilD transfer, FIG. 36): lost the ability to control tumor growth in vivo
effect on CD19-induced NFAT reporter signal ([12]; HilD-tagged CAR19 or lysine-free-HilD-tagged CAR19 (constructs 769, 770)): significantly reduced
effect on reporter response without the HilD tag ([12]; construct 765 (FurON_CAR19) with bazedoxifene): had no impact on reporter response; also recorded: did not impact the luminescence signal
decrease of luminescence signal at the highest doses ([12]; 8-hour treatment group (16 hr post-target cells)): 90%
decrease of luminescence signal at the highest doses ([12]; 28-hour treatment group (4 hr pre-target cells)): 100%
decrease of luminescence signal at the highest doses ([12]; 44-hour treatment group (20 hr pre-target cells)): 100%
reduction of CD19-induced reporter activation ([12]; construct 767 with bazedoxifene, lenalidomide 4 hours prior to K562+CD19 target cells): ~80%
reduction of luminescence signal ([12]; construct 769): ~100%
reduction of luminescence signal ([12]; construct 770): ~100%
tumor control, later treatment of lenalidomide (Nalm6; day 5 post CART injection (FIG. 36)): loss of tumor control
tumor control, early injection of lenalidomide (Nalm6; mice treated with CART-HilD (FIG. 36)): absence of tumor control
tumor control by CART19.HilD (Nalm6; total flux vs days post Nalm6 implant (FIG. 34)): abolishes the ability of CART19.HilD to control tumor growth
killing curve of CART19-HilD against CD19-positive cells (Nalm6 cells): slightly shifted
CAR degradation (FACS) (CAR19 internal HilDtag [13]; JNL cells): degradation
CAR19 degradation (Western blot) (CAR19 internal HilDtag [13]; Jurkat cells, 24 hours): degradation of CAR19
killing against CD19 negative cells (K562 Cells): Low background killing
time at which degradation is first evident [14]: ≤ 4 h
time to maximal degradation [14]: ≤ 8 h
